Results on 25 molecules are retold here after patent US8461160B2, “Dihydropyrimidinones” (Hoffmann-La Roche, Inc., priority 2009, dated 2013).

SMILES strings stand for the structures.

The target in the assay is T1, BACE2 (Homo sapiens, UniProt Q9Y5Z0).
T1 construct: BACE2 enzyme ectodomain (derived from plasmid “pET17b-T7-hu proBACE2”) was prepared as described in Ostermann et al; T7 tag (N); made in house
T1 sequence (Q9Y5Z0 21-473 limits assumed): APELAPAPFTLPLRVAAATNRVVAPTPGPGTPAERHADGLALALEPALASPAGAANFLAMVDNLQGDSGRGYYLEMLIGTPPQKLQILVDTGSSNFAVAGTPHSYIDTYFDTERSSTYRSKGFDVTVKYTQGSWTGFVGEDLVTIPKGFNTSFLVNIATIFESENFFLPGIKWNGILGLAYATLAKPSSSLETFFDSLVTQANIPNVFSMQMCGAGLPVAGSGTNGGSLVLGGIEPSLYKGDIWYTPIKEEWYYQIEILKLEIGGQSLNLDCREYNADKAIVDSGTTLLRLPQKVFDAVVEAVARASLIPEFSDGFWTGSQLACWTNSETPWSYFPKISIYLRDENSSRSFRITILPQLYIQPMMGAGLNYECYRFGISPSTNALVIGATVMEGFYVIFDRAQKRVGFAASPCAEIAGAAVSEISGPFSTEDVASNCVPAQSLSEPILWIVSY
Description: Fluorescent-peptide cleavage assay for BACE2 inhibition. Format: biochemical. The following applies: BACE2 enzyme ectodomain, fluorescent peptide WS EVNLD AEFRC-MR121, assay buffer pH 4.5, room temperature. In outline:
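Pro-enzyme BACE2 was activated at 80 nM for 1 h at room temperature in 100 mM Na-acetate, 20 mM EDTA, 0.05% BSA, pH 4.5, then preincubated 10 min with compound. IC50 from sigmoidal dose-response fit.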
`Cc1nc(C(=O)Nc2ccc(F)c([C@@]3(C)N=C(N)N(C)C(=O)C3(C)C)c2)co1` [Example 101, 2-Methyl-oxazole-4-carboxylic acid [3-((S)-2-amino-1,4,5,5-tetramethyl-6-oxo-1,4,5,6-tetrahydro-pyrimidin-4-yl)-4-fluoro-phenyl]amide]: the half-maximal inhibitory concentration (IC50) worked out at 0.021 µM.
For `Cc1ccc(C(=O)Nc2ccc(F)c([C@@]3(C)N=C(N)N(C)C(=O)C3(C)C)c2)s1` [Example 102, 5-Methyl-thiophene-2-carboxylic acid [3-((S)-2-amino-1,4,5,5-tetramethyl-6-oxo-1,4,5,6-tetrahydro-pyrimidin-4-yl)-4-fluoro-phenyl]amide] the value was 0.052 µM.
Take `CN1C(=O)C(C)(C)[C@@](C)(c2cc(NC(=O)c3ccc(OC(F)F)cn3)ccc2F)N=C1N` [Example 103, 5-Difluoromethoxy-pyridine-2-carboxylic acid [3-((S)-2-amino-1,4,5,5-tetramethyl-6-oxo-1,4,5,6-tetrahydro-pyrimidin-4-yl)-4-fluoro-phenyl]amide]: half-maximal inhibition (IC50) required 0.025 µM.
Under `COc1cccnc1C(=O)Nc1ccc(F)c([C@@]2(C)N=C(N)N(C)C(=O)C2(C)C)c1` [Example 104, 3-Methoxy-pyridine-2-carboxylic acid [3-((S)-2-amino-1,4,5,5-tetramethyl-6-oxo-1,4,5,6-tetrahydro-pyrimidin-4-yl)-4-fluoro-phenyl]amide] stands 0.15 µM; under `Cc1cccnc1C(=O)Nc1ccc(F)c([C@@]2(C)N=C(N)N(C)C(=O)C2(C)C)c1` [Example 105, 3-Methyl-pyridine-2-carboxylic acid [3-((S)-2-amino-1,4,5,5-tetramethyl-6-oxo-1,4,5,6-tetrahydro-pyrimidin-4-yl)-4-fluoro-phenyl]amide], 0.049 µM; under `CN1C(=O)C(C)(C)[C@@](C)(c2cc(NC(=O)c3ncc(Cl)cn3)ccc2F)N=C1N` [Example 106, 5-Chloro-pyrimidine-2-carboxylic acid [3-((S)-2-amino-1,4,5,5-tetramethyl-6-oxo-1,4,5,6-tetrahydro-pyrimidin-4-yl)-4-fluoro-phenyl]amide], 0.028 µM.
Consider `CN1C(=O)C(C)(C)[C@@](C)(c2cc(NC(=O)c3cnc(Cl)cn3)ccc2F)N=C1N` [Example 107, 5-Chloro-pyrazine-2-carboxylic acid [3-((S)-2-amino-1,4,5,5-tetramethyl-6-oxo-1,4,5,6-tetrahydro-pyrimidin-4-yl)-4-fluoro-phenyl]amide], for which the midpoint of inhibition, the IC50, lay at 0.027 µM.
For `CN1C(=O)C(C)(C)[C@@](C)(c2cc(NC(=O)c3ncccc3F)ccc2F)N=C1N` [Example 108, 3-Fluoro-pyridine-2-carboxylic acid [3-((S)-2-amino-1,4,5,5-tetramethyl-6-oxo-1,4,5,6-tetrahydro-pyrimidin-4-yl)-4-fluoro-phenyl]amide] the value was 0.028 µM.
For `CN1C(=O)C(C)(C)[C@@](C)(c2cc(NC(=O)c3ncoc3-c3ccccc3)ccc2F)N=C1N` [Example 109, 5-Phenyl-oxazole-4-carboxylic acid [3-((S)-2-amino-1,4,5,5-tetramethyl-6-oxo-1,4,5,6-tetrahydro-pyrimidin-4-yl)-4-fluoro-phenyl]amide] the value was 0.17 µM; for `CN1C(=O)C(C)(C)[C@@](C)(c2cc(NC(=O)c3ccc(C(F)(F)F)cn3)ccc2F)N=C1N` [Example 110, 5-Trifluoromethyl-pyridine-2-carboxylic acid [3-((S)-2-amino-1,4,5,5-tetramethyl-6-oxo-1,4,5,6-tetrahydro-pyrimidin-4-yl)-4-fluoro-phenyl]amide], 0.02 µM; for `CN1C(=O)C(C)(C)[C@@](C)(c2cc(NC(=O)c3nccn3C)ccc2F)N=C1N` [Example 111, 1-Methyl-1H-imidazole-2-carboxylic acid [3-((S)-2-amino-1,4,5,5-tetramethyl-6-oxo-1,4,5,6-tetrahydro-pyrimidin-4-yl)-4-fluoro-phenyl]amide], 0.19 µM.
Under `CN1C(=O)C(C)(C)[C@@](C)(c2cc(NC(=O)c3cn(C)cn3)ccc2F)N=C1N` [Example 112, 1-Methyl-1H-imidazole-4-carboxylic acid [3-((S)-2-amino-1,4,5,5-tetramethyl-6-oxo-1,4,5,6-tetrahydro-pyrimidin-4-yl)-4-fluoro-phenyl]amide] stands 1.26 µM; under `COc1ccc(C(=O)Nc2ccc(F)c([C@@]3(C)N=C(N)N(C)C(=O)C3(C)C)c2)nc1` [Example 113, 5-Methoxy-pyridine-2-carboxylic acid [3-((S)-2-amino-1,4,5,5-tetramethyl-6-oxo-1,4,5,6-tetrahydro-pyrimidin-4-yl)-4-fluoro-phenyl]amide], 0.021 µM; under `CN1C(=O)C(C)(C)[C@@](C)(c2cc(NC(=O)c3ccc(F)cn3)ccc2F)N=C1N` [Example 114, 5-Fluoro-pyridine-2-carboxylic acid [3-((S)-2-amino-1,4,5,5-tetramethyl-6-oxo-1,4,5,6-tetrahydro-pyrimidin-4-yl)-4-fluoro-phenyl]amide], 0.043 µM.
Take `CN1C(=O)C(C)(C)[C@@](C)(c2cc(NC(=O)c3ccc(C#N)cn3)ccc2F)N=C1N` [Example 115, 5-Cyano-pyridine-2-carboxylic acid [3-((S)-2-amino-1,4,5,5-tetramethyl-6-oxo-1,4,5,6-tetrahydro-pyrimidin-4-yl)-4-fluoro-phenyl]amide]: the IC50 came out at 0.063 µM.
`Cc1cc(C(=O)Nc2ccc(F)c([C@@]3(C)N=C(N)N(C)C(=O)C3(C)C)c2)no1` [Example 116, 5-Methyl-isoxazole-3-carboxylic acid [3-((S)-2-amino-1,4,5,5-tetramethyl-6-oxo-1,4,5,6-tetrahydro-pyrimidin-4-yl)-4-fluoro-phenyl]amide] yielded an IC50 of 0.84 µM.
Under `CN1C(=O)C(C)(C)[C@@](C)(c2cc(NC(=O)c3ncco3)ccc2F)N=C1N` [Example 117, Oxazole-2-carboxylic acid [3-((S)-2-amino-1,4,5,5-tetramethyl-6-oxo-1,4,5,6-tetrahydro-pyrimidin-4-yl)-4-fluoro-phenyl]amide] stands 0.23 µM; under `CN1C(=O)C(C)(C)[C@@](C)(c2cc(NC(=O)c3ncc(C(F)(F)F)cc3Cl)ccc2F)N=C1N` [Example 118, 3-Chloro-5-trifluoromethyl-pyridine-2-carboxylic acid [3-((S)-2-amino-1,4,5,5-tetramethyl-6-oxo-1,4,5,6-tetrahydro-pyrimidin-4-yl)-4-fluoro-phenyl]amide], 0.019 µM.
Under `CN1C(=O)C(C)(C)[C@@](C)(c2cc(NC(=O)c3nc(Cl)ccc3C(F)(F)F)ccc2F)N=C1N` [Example 119, 6-Chloro-3-trifluoromethyl-pyridine-2-carboxylic acid [3-((S)-2-amino-1,4,5,5-tetramethyl-6-oxo-1,4,5,6-tetrahydro-pyrimidin-4-yl)-4-fluoro-phenyl]amide] stands 0.56 µM.
For `CN1C(=O)C(C)(C)[C@@](C)(c2cc(NC(=O)c3cn4cc(Cl)ccc4n3)ccc2F)N=C1N` [Example 120, 6-Chloro-imidazo[1,2-a]pyridine-2-carboxylic acid [3-((S)-2-amino-1,4,5,5-tetramethyl-6-oxo-1,4,5,6-tetrahydro-pyrimidin-4-yl)-4-fluoro-phenyl]amide] the value was 0.043 µM.
In turn, `CN1C(=O)C(C)(C)[C@@](C)(c2cc(NC(=O)c3ccn(C(F)F)n3)ccc2F)N=C1N` [Example 121, 1-Difluoromethyl-1H-pyrazole-3-carboxylic acid [3-((S)-2-amino-1,4,5,5-tetramethyl-6-oxo-1,4,5,6-tetrahydro-pyrimidin-4-yl)-4-fluoro-phenyl]amide] came in with an IC50 of 0.017 µM.
For `CN1C(=O)C(OCc2ccccc2)[C@@](C)(c2cc(NC(=O)c3ccc(Cl)cn3)ccc2F)N=C1N` (stereo partly drawn) [Example 122, 5-Chloro-pyridine-2-carboxylic acid [3-((R)-2-amino-5-benzyloxy-1,4-dimethyl-6-oxo-1,4,5,6-tetrahydro-pyrimidin-4-yl)-4-fluoro-phenyl]amide] the value was 0.01 µM; for `CN1C(=O)C(O)[C@@](C)(c2cc(NC(=O)c3ccccn3)ccc2F)N=C1N` (stereo partly drawn) [Example 123, Pyridine-2-carboxylic acid [3-((R)-2-amino-5-hydroxy-1,4-dimethyl-6-oxo-1,4,5,6-tetrahydro-pyrimidin-4-yl)-4-fluoro-phenyl]amide], 0.35 µM; for `C[C@@]1(c2cccc(NC(=O)c3ccc(Cl)cn3)c2)CC(=O)N(CC2CC2)C(N)=N1` [Example 124, 5-Chloro-pyridine-2-carboxylic acid [3-((S)-2-amino-1-cyclopropylmethyl-4-methyl-6-oxo-1,4,5,6-tetrahydro-pyrimidin-4-yl)-phenyl]amide], 0.042 µM.
For `CN1C(=O)C[C@@](C)(c2ccc(F)c(NC(=O)c3ccc(Cl)cn3)c2)N=C1N` [Example 125, 5-Chloro-pyridine-2-carboxylic acid [5-((S)-2-amino-1,4-dimethyl-6-oxo-1,4,5,6-tetrahydro-pyrimidin-4-yl)-2-fluoro-phenyl]amide] the value was 0.31 µM.
